According to patent US20240285726A1, “Bacteriocin for new application” (Syngulon S.A., priority 2021, published 2024):
“Also recorded” adds a separate entry of the source. Ends that are not written are not given here.

What was measured:
S. aureus ATCC 6538 [1] = experiment: Antimicrobial activity test on inoculated M17 agar plates (inhibition halo); type: cell-based, Staphylococcus aureus; settings: for antimicrobial activity of variants (inhibition halo): 5 μl of 1 mg/ml aqueous solution on M17 agar plates of S. aureus ATCC 6538, overnight incubation, compared with SEQ ID NO: 1
Procedure: (§1) Bacterial strains were grown overnight in liquid culture on rotary shakers or on agar plates using M17 media supplemented with 0.5% glucose. S. aureus ATCC 6538 and S. epidermidis ATCC 12228 liquid cultures and agar plates were grown anaerobically at 37° C. Culture volume utilized in MIC assays was 200 μl.
(§2) Antimicrobial activities of bacteriocins were tested on M17 agar plates in Examples 1 and 3. In Example 1, 2 μl of bacteriocin peptide (SEQ ID NO: 1) aqueous solutions at a concentration of 1 mg/ml were deposited on inoculated M17 agar plates of S. aureus ATCC 6538 and S. epidermidis ATCC 12228. An equivalent amount of aureocin A53 aqueous solution (1 mg/ml concentration) was used as positive control. In the case of S. epidermidis ATCC 12228, an equivalent amount of pediocin A1 aqueous solution (1 mg/ml concentration) was used as negative control.
In Example 3, 5 μl of bacteriocin peptides (SEQ ID NO: 1, 3-97) aqueous solutions at a concentration of 1 mg/ml were deposited on inoculated M17 agar plates of S. aureus ATCC 6538. After overnight incubation, the presence of an inhibition halo was considered as a positive result of antimicrobial activity.

[2] = test system: S. epidermidis ATCC 12228; experiment: as above; type: cell-based, Staphylococcus epidermidis; settings: 2 μl of 1 mg/ml aqueous solution on inoculated M17 agar plate, overnight incubation
Procedure: as §1, §2

S. aureus ATCC 6538 [3] = experiment: MIC assay in liquid cultures (endpoint OD600); type: cell-based, Staphylococcus aureus; settings: calculated as average concentration between wells 10 and 11
Procedure: as §1
(§3) Determination of bacteriocin (SEQ ID NO: 1) MIC values was performed in liquid cultures. Growth was assessed by measuring endpoint OD600 values in a Spectramax i3 (Molecular Devices, CA, USA). Minimum inhibitory concentration (MIC) was defined as the lowest concentration of bacteriocin which inhibited 50% of the growth of cultures as compared to reference cultures not exposed to the bacteriocin. Concentration of the bacteriocin in well 11 was 250 μg/ml in the case of S. aureus ATCC 6538 and 500 μg/ml in the case of S. epidermidis ATCC 12228, diluted 2-fold per subsequent well as shown in Table 3 (concentrations rounded to the second decimal): […]

[4] = test system: S. epidermidis ATCC 12228; experiment: MIC assay in liquid cultures (endpoint OD600); type: cell-based, Staphylococcus epidermidis; settings: liquid culture, concentrations 0.49 to 500 μg/ml
Procedure: as §1, §3

Substance | antimicrobial activity of variants (inhibition halo) (S. aureus ATCC 6538 [1]) | inhibition halo on agar plate [2] | other results
MAFLKLVAKLGPKAAKWAWANKGKVLGWIRDGLAIDWIINKINDIVN [SEQ ID NO: 54] | did not compromise its antimicrobial activity |  | 
MLAFLKLVAKLGPKAAKWAWANKGKVLGWIRDGLAIDWIINKINDIVN [SEQ ID NO: 1] |  | no inhibition halo was visible; also recorded: no inhibition halo was present | inhibition halo on agar plate (S. aureus ATCC 6538 [1]; 2 μl of 1 mg/ml aqueous solution on inoculated M17 agar plate, overnight incubation, S. aureus ATCC 6538): An inhibition halo was visible; MIC (lowest concentration inhibiting 50% of culture growth) (S. aureus ATCC 6538 [3]): 188 µg/mL; growth inhibition in MIC assay [4]: No growth inhibition was observed
MLAFLKLVAKLGPKAAKWAWANKGKVLGWIRDGLAIINKINDIVN [SEQ ID NO: 62] | did not compromise its antimicrobial activity |  | 
MLFLKLVAKLGPKAAKWAWANKGKVLGWIRDGLAIDWIINKINDIVN [SEQ ID NO: 55] | did not compromise its antimicrobial activity |  | 
aureocin A53 [reference compound] |  | an inhibition halo was present | 
pediocin A1 [reference compound] |  | no inhibition halo was visible | 
